Laboratory results published in PubChem BioAssay (NCI).
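Step 1: Grow cells in 96-well plates. Step 2: Expose to compound for 48 hours at 5 concentrations. Step 3: Interpolate endpoints linearly; if unreached, use highest concentration. The concentration for 50% growth inhibition is given as GI50. At the TGI there is no net growth.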

Experiments:
Experiment in all cases: growth of human tumour cells (NCI), 48 h
HCT-116 colon = tested on: HCT-116 colon
HCT-15 colon = tested on: HCT-15 colon
K-562 leukemia = tested on: K-562 leukemia
LOX IMVI melanoma = tested on: LOX IMVI melanoma
M14 melanoma = tested on: M14 melanoma
MALME-3M melanoma = tested on: MALME-3M melanoma
MDA-MB-231 breast = tested on: MDA-MB-231 breast
SW-620 colon = tested on: SW-620 colon
U251 CNS = tested on: U251 CNS
UO-31 renal = tested on: UO-31 renal

Row | Compound | TGI (HCT-116 colon) | TGI (HCT-15 colon) | TGI (K-562 leukemia) | TGI (LOX IMVI melanoma) | TGI (M14 melanoma) | TGI (MALME-3M melanoma) | TGI (MDA-MB-231 breast) | TGI (SW-620 colon) | TGI (U251 CNS) | TGI (UO-31 renal) | GI50 (HCT-116 colon) | GI50 (LOX IMVI melanoma) | GI50 (M14 melanoma) | GI50 (MALME-3M melanoma) | GI50 (MDA-MB-231 breast) | GI50 (SW-620 colon) | GI50 (U251 CNS) | GI50 (UO-31 renal) | GI50 (HCT-15 colon) | GI50 (K-562 leukemia)
1 | C=C(C)CNC(=S)N(N)c1ccc2ccccc2c1 | > 100 µM | 28.7 µM | > 100 µM | > 100 µM | > 100 µM | > 100 µM | > 100 µM | > 100 µM | > 100 µM | > 100 µM | – | – | – | – | – | – | – | – | – | –
2 | CC(C)(C)CC(C)(C)c1ccc(O)c(C[N+](C)(C)[O-])c1 | > 100 µM | > 100 µM | > 100 µM | > 100 µM | > 100 µM | > 100 µM | > 100 µM | > 100 µM | > 100 µM | > 100 µM | – | – | – | – | – | – | – | – | – | –
3 | CCC[C@@H]1C(=O)N=C(N)N1C(=O)OCc1ccccc1 | > 100 µM | > 100 µM | > 100 µM | > 100 µM | – | > 100 µM | > 100 µM | > 100 µM | > 100 µM | > 100 µM | – | – | – | – | – | – | – | – | – | –
4 | CC(=O)Nc1ccccc1NC1CC(C)N(c2ccccc2)N1C(C)=O (configuration not stated) | – | > 10 µM | > 10 µM | – | > 10 µM | > 10 µM | > 10 µM | > 10 µM | – | – | – | – | – | – | – | – | – | – | – | –
5 | C=C1CN(C2=NCCO2)C1 | > 100 µM | > 100 µM | > 100 µM | > 100 µM | > 100 µM | > 100 µM | > 100 µM | > 100 µM | – | > 100 µM | – | – | – | – | – | – | – | – | – | –
6 | COC(=O)C1=C(C(=O)OC)SC2(S1)C(C(=O)OC)=C(C(=O)OC)Sc1c2ssc1=NC(C)(C)C | 2.03 µM | 2.19 µM | 9.66 µM | 2.4 µM | 3.15 µM | 5.09 µM | 3.44 µM | – | 3.54 µM | 3.34 µM | – | – | – | – | – | – | – | – | – | –
7 | CN1CCN(C2=CC(=O)c3c(O)ccc(O)c3C2=O)CC1 | 0.578 µM | – | 1.72 µM | 1.79 µM | 1.94 µM | 0.592 µM | 3.1 µM | 1.89 µM | 2.97 µM | 2.92 µM | – | – | – | – | – | – | – | – | – | –
8 | CC1=C(C)C(=O)C(C2=CC(=O)C=CC2=O)=C(C2=CC(=O)C=CC2=O)C1=O | > 79.2 µM | > 100 µM | – | > 96.1 µM | > 100 µM | > 100 µM | 42.5 µM | > 76.2 µM | > 77.5 µM | > 100 µM | – | – | – | – | – | – | – | – | – | –
9 | O=c1ccc2nc(-c3ccccn3)nn(-c3ccccc3)c-2c1 | 3.42 µM | – | – | 3.44 µM | 13.6 µM | 3.37 µM | 3.68 µM | 3.66 µM | 14.2 µM | 2.82 µM | 1.77 µM | 1.78 µM | 3.39 µM | 1.77 µM | 1.92 µM | 1.77 µM | 3.7 µM | 1.46 µM | – | –
10 | O=C(O)Cn1cc([N+](=O)[O-])c(=O)c2ccccc21 | > 100 µM | > 100 µM | > 100 µM | – | > 100 µM | > 100 µM | 32.9 µM | > 100 µM | > 100 µM | > 100 µM | – | – | – | – | – | – | – | – | – | –
11 | CCOC(=O)c1c(-c2cccc3ccccc23)c(C#N)c(=S)n(C2OC(COC(C)=O)C(OC(C)=O)C(OC(C)=O)C2OC(C)=O)c1C (configuration not stated) | > 100 µM | > 100 µM | > 100 µM | > 100 µM | > 100 µM | > 100 µM | > 100 µM | – | > 100 µM | 3.49 µM | – | – | – | – | – | – | – | – | – | –
12 | Cc1nc2ccccc2c(/C=C/c2ccc(Cl)cc2)c1C(=O)/C=C/c1ccccc1 | – | 4.03 µM | – | 3.03 µM | – | 3.01 µM | 4.37 µM | – | 3.07 µM | 2.4 µM | – | 1.64 µM | – | 1.63 µM | 1.87 µM | – | 1.61 µM | 1.18 µM | 1.36 µM | –
13 | CCN1CCC(O)(/C=C/c2ccc(OC)cc2)C(C(=O)/C=C/c2ccc(OC)cc2)C1 (configuration not stated) | 14.7 µM | – | 12.2 µM | 8.82 µM | 34.1 µM | 32.8 µM | 17.5 µM | 17.9 µM | 19.7 µM | 21.5 µM | – | – | – | – | – | – | – | – | – | –
14 | O=c1ccc2ccc(O)cc2o1 | > 100 µM | > 100 µM | – | > 100 µM | > 100 µM | > 100 µM | > 100 µM | > 100 µM | > 100 µM | > 100 µM | – | – | – | – | – | – | – | – | – | –
15 | COc1ccc(-c2nn(-c3ccc(NC(=O)Nc4ccc(Cl)c(C(F)(F)F)c4)cc3)cc2-c2ccncc2)cc1Cl | 2.69 µM | 3.03 µM | 8.55 µM | – | 3.13 µM | 5.09 µM | 2.67 µM | 4.4 µM | 2.59 µM | 3.05 µM | 1.1 µM | – | 1.49 µM | 1.59 µM | 1.2 µM | 1.93 µM | 0.928 µM | 1.1 µM | 1.12 µM | 1.25 µM
16 | CN(Cc1cc(Cl)c(Cl)cc1NC(=O)CN)[C@H]1CCCC[C@@H]1N1CCCC1 | 45.2 µM | – | 35.9 µM | 32.3 µM | 33.2 µM | 33.6 µM | > 100 µM | > 100 µM | 18.8 µM | > 100 µM | – | – | – | – | – | – | – | – | – | –
